One assay has as its target KAT2B (Homo sapiens, UniProt Q92831). The assay is described as follows: KAT2B degradation, Western Blot (Jess), NCI-H1048 cells. Details: degrader, Western blot (Jess). To be noted: NCI-H1048 cells, KAT2B, 24 h, Western Blot, vs DMSO; read-out: KAT2B NCI-H1048 DC50. In kind it is cell-based. The method, boiled down: (§1)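 NCI-H1048 cells grown in HITES medium with 5% FBS were treated with compounds for 24 h at 37° C. Lysates were run by capillary Western (Jess) with KAT2A or KAT2B antibodies and chemiluminescent detection. DC50 derived from percent protein reduction versus DMSO control.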

The target of another assay is KAT2A (Homo sapiens, UniProt Q92830). The assay is described as follows: KAT2A degradation, Western Blot (Jess), NCI-H1048 cells. In kind it is cell-based. Set-up: degrader, Western blot (Jess). Particulars: NCI-H1048 cells, KAT2A, 24 h, Western Blot, vs DMSO; read-out: KAT2A NCI-H1048 DC50. The method, boiled down: as §1
KAT2A, sequence (Q92830 whole entry): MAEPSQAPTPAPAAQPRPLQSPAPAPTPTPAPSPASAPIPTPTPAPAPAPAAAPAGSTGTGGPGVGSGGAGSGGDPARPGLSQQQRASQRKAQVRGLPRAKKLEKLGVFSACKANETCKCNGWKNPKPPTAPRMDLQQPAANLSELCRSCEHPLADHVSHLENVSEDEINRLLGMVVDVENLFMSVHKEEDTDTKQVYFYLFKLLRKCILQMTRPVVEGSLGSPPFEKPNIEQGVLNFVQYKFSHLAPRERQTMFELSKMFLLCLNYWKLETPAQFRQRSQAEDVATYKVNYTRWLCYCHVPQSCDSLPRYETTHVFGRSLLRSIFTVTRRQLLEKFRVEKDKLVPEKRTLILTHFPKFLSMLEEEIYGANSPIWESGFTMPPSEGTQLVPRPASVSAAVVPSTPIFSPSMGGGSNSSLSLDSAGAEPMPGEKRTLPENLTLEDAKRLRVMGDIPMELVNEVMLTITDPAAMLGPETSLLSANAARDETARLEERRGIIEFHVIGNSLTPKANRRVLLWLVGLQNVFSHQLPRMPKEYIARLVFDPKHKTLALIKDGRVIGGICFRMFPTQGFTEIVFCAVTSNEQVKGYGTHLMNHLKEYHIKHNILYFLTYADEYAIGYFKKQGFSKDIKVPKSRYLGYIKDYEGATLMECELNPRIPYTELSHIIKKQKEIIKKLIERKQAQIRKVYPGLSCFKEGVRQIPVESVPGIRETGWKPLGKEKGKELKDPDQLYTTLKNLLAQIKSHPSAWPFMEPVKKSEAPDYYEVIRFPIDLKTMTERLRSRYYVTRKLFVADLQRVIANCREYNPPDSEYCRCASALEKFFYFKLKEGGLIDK
(In western blotting, separated proteins are transferred to a membrane and probed.)

KAT2B, sequence (Q92831 whole entry): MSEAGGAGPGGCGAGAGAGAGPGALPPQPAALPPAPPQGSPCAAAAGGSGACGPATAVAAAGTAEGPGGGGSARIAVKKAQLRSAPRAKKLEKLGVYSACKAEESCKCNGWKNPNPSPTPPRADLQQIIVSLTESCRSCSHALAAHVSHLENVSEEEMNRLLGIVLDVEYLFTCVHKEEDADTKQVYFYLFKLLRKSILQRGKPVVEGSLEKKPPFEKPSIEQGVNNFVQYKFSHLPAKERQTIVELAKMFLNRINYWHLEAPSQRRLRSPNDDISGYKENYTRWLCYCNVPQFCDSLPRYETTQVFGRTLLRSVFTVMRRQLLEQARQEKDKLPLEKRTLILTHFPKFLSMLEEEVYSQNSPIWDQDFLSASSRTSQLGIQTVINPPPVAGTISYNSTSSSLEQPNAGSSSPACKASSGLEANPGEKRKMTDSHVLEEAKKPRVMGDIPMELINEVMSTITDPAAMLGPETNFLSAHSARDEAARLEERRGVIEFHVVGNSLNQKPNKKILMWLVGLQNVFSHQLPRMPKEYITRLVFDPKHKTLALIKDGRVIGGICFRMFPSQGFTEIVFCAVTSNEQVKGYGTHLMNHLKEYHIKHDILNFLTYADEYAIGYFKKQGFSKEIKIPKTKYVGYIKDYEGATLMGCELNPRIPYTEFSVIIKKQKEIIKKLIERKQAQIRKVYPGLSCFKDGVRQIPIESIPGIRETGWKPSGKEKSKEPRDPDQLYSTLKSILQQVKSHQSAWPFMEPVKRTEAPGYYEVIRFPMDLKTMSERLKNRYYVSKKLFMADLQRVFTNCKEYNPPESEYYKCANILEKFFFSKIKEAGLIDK

In the case of `CN1C[C@H](Nc2cnn(C)c(=O)c2Cl)C[C@H](c2ccc(C(=O)N3CCC4(CCC(c5ccc(C6CCC(=O)NC6=O)cn5)CC4)CC3)cc2)C1` (stereo partly drawn) [Compound 322], the DC50 at KAT2B and on KAT2A was below 1 nM each time.

As for `CN1C[C@H](Nc2cnn(C)c(=O)c2Cl)C[C@H](c2ccc(C(=O)N3CCC4(CC3)CCN(c3ccc5c(N6CCC(=O)NC6=O)nccc5c3)CC4)cc2)C1` [Compound 376], the DC50 at KAT2B and at KAT2A was above 30 nM throughout.

`CN1C[C@H](Nc2cnn(C)c(=O)c2Cl)C[C@H](c2ccc(CN3CCN(c4ccc5c(C6CCC(=O)NC6=O)cncc5c4)CC3)cc2)C1` (stereo partly drawn) [Compound 381]: the DC50 on KAT2B was below 1 nM; on KAT2A it was 1 to 30 nM.

Take `CN1C[C@H](Nc2cnn(C)c(=O)c2Cl)C[C@H](c2ccc(CN3CCC4(CC3)CCN(c3ccc(C5CCC(=O)NC5=O)c(C(F)(F)F)c3)CC4)cc2)C1` (stereo partly drawn) [Compound 343]: the half-maximal degradation concentration (DC50) at KAT2B and on KAT2A was above 30 nM each time.

In the case of `Cc1ncsc1-c1ccc(CNC(=O)[C@@H]2C[C@@H](O)CN2C(=O)[C@@H](NC(=O)CN2CCC(N3CCN(C(=O)c4ccc([C@H]5C[C@@H](Nc6cnn(C)c(=O)c6Br)CN(C)C5)cc4)CC3)CC2)C(C)(C)C)cc1` [Compound 409], the results for the DC50 at KAT2B and at KAT2A were above 30 nM and 1 to 30 nM, respectively.

On to `CN1C[C@H](Nc2cnn(C)c(=O)c2Cl)C[C@H](c2ccc(C(=O)N3CCC4(CC3)CCN(c3ccc(OC5CCC(=O)NC5=O)cn3)CC4)cc2)C1` (stereo partly drawn) [Compound 367], for which the 50% degradation concentration (DC50) was above 30 nM at KAT2B and below 1 nM at KAT2A.

In the case of `CN1C[C@H](Nc2cnn(C)c(=O)c2Br)C[C@H](c2ccc(C(=O)N3CCC4(CC3)CCN(c3ccc(C5CCC(=O)NC5=O)cc3C(F)(F)F)CC4)cc2)C1` (stereo partly drawn) [Compound 220], the figures for the DC50 at KAT2B and on KAT2A were 1 to 30 nM and below 1 nM, respectively.

As for `CN1C[C@H](Nc2cnn(C)c(=O)c2Br)C[C@H](c2ccc(C(=O)N3CCC4(CC3)CCN(c3ccc5c(N6CCC(=O)NC6=O)nccc5c3)CC4)cc2)C1` [Compound 374], the half-maximal degradation concentration (DC50) on KAT2B was above 30 nM; on KAT2A, below 1 nM.

Turning to `Cc1cc(N2CC(N3CCN(C(=O)c4ccc([C@H]5C[C@@H](Nc6cnn(C)c(=O)c6Cl)CN(C)C5)cc4)CC3)C2)ccc1C1CCC(=O)NC1=O` (stereo partly drawn) [Compound 308], the DC50 was 1 to 30 nM at KAT2B and below 1 nM at KAT2A.

For `CN1C[C@H](Nc2cnn(C)c(=O)c2Br)C[C@H](c2ccc(CN3CCN(c4ccc5c(C6CCC(=O)NC6=O)nccc5c4)CC3)cc2)C1` (stereo partly drawn) [Compound 382], the 50% degradation concentration (DC50) on KAT2B and at KAT2A was below 1 nM in each case.

As to `Cc1cc(N2CCC3(CCN(C(=O)c4ccc([C@H]5C[C@@H](Nc6cnn(C)c(=O)c6Cl)CN(C)C5)cc4)CC3)CC2)ccc1N1CCC(=O)NC1=O` [Compound 396], the half-maximal degradation concentration (DC50) on KAT2B and on KAT2A was below 1 nM each time.

Regarding `CN1C[C@H](Nc2cnn(C)c(=O)c2Cl)C[C@H](c2ccc(CN3CCN(c4ccc5cc(C6CCC(=O)NC6=O)cnc5c4)CC3)cc2)C1` (stereo partly drawn) [Compound 298], the figures for the DC50 on KAT2B and on KAT2A were above 30 nM and below 1 nM, respectively.

Take `CN1C[C@H](Nc2cnn(C)c(=O)c2Cl)C[C@H](c2ccc(CN3CCN(c4cccc(C5CCC(=O)NC5=O)c4)CC3)cc2)C1` (stereo partly drawn) [Compound 361]: the 50% degradation concentration (DC50) on KAT2B was 1 to 30 nM; on KAT2A, below 1 nM.

Turning to `Cc1cc(N2CCC3(CC2)CN(C(=O)c2ccc([C@H]4C[C@@H](Nc5cnn(C)c(=O)c5Br)CN(C)C4)cc2)C3)ccc1C1CCC(=O)NC1=O` (stereo partly drawn) [Compound 292], the DC50 at KAT2B was 1 to 30 nM; on KAT2A it was below 1 nM.

Consider `CN1C[C@H](Nc2cnn(C)c(=O)c2Cl)C[C@H](c2ccc(C(=O)N3CCC4(CC3)CCN(c3ccc(NC5CCC(=O)NC5=O)c(F)c3)CC4)cc2)C1` (stereo partly drawn) [Compound 372], for which the results for the DC50 on KAT2B and on KAT2A were 1 to 30 nM and below 1 nM, respectively.

As a reminder, the DC50 is the concentration at which degradation of the target reaches its halfway point.

The values are drawn from patent US20260306640A1, “TECHNOLOGIES TARGETING CELL STATES” (Auron Therapeutics, Inc., priority 2023, published 2026).
